{"source": "patent US20150087722A1", "about": "“TREATMENT FOR BREAST TUMOR CELL METASTASIS” (China Medical University, priority 2012, published 2015)", "key": {"[1]": {"tested_on": "breast tumor cells MDA-MB-231", "test": "transwell invasion assay", "format": "cell-based, human", "settings": "0.5, 1 and 2 μM, 20 h, with increasing concentration", "protocol": "(§1) In the transwell invasion assay, the Matrigel which was a component of ECM was used to imitate the environment between cells. When the cells in a BD Matrigel™ Invasion Chamber were stimulated by growth factors in the Matrigel matrix, the cells secreted some matrix proteolytic enzymes to degrade the Matrigel, so as to facilitate invasion of cells. If the cells had strong invasion capability, the cells can be observed on the filter membrane after staining. In FIG. 15, 800 μl 10% FBS-DMEM was added into the transwell as a chemoattractant, and then 500 μl cells (1×10^5) were planted in the transwell. DMEM culture medium included no FBS and the compound II of 0.5, 1 and 2 μM. The breast tumor cells MDA-MB-231 were then cultured at an atmosphere of 5% CO2 in an incubator at 37° C. for 20 h. Subsequently the cells were stained with Giemsa for 15 min, and observed by taking photographs at a 200× field of an optical microscope. In the test each time each group was represented by a medium value of three repeat transwells. In FIGS. 16A, 16B and 17, the breast tumor cells MDA-MB-231 were replaced by the breast tumor cells MDA-MB-468, the breast tumor cells MDA-MB-435 and the human normal breast cells MCF-10A, respectively. Furthermore, in FIGS. 16A and 16B, the compound II was replaced by the compound I of 0.5, 1 and 2 μM and the compound I of 2.5, 5 and 7.5 μM. In FIG. 17, the compound II was replaced by compound I of 2 μM, TNF-α/TGF-β of 10 ng/ml, and compound I of 2 μM and TNF-α/TGF-β of 10 ng/ml. In the quantitative method of cell migration test, steps included randomly choosing 9 fields at the lower surface of the transwell membrane, counting the total cell number in each field; regarding the medium value of cell number in the 9 fields as an index of chemotaxis migration of breast tumor cells in each transwell, and each group of each test was represented by the medium value of 3 repeat transwells."}, "[2]": {"tested_on": "PI3K and Akt in breast tumor cells", "test": "western blotting of PI3K and Akt and phosphorylation", "format": "cell-based, human", "settings": "2 μM, 0-120 min", "protocol": "The steps of western blotting include: washing cells with PBS twice at 4° C.; adding a lysis buffer and rubbing the cells by a rubbr policeman so as to lyse cells; putting the lysed cell solution into a 1.5 ml microcentrifuge tube and shaking for 1 min; centrifuging at 12000 rpm for 10 min and taking the supernatant; measuring concentration of the protein through a Bio-Rad protein assay kit; and storing the remained extracted protein solution at −70° C.; taking 100 μg protein solution and adding a SDS/protein loading buffer having the same volume, where the SDS/protein loading buffer has a concentration two times larger than the protein solution; boiling the mixture of the protein solution and the SDS/protein loading buffer at 100° C. for 10 min; cooling and loading the protein samples in each hole of gel; adjusting the voltage to 100 V and running the protein samples on the gel until the tracking dye in the sample buffer reaches the bottom of the gel; and subsequently transferring the protein from the gel using electrophoresis. […] Then luminescence image equipment was used, where the PVDF was placed onto a black metal plate by a plastic pincer and the face including protein was upwards, a 1:1 mixed Chemiluminesent Substrate was added into the membrane and the exposure time depends on the fluorescence intensity of antibodies. […]"}, "[3]": {"tested_on": "Normal Rat Macrophage Cell (RAW264.7 cell strain)", "test": "MTT cell viability assay", "format": "cell-based"}, "[4]": {"tested_on": "breast tumor cells MDA-MB-231", "test": "wound scratching assay (cell migration)", "format": "cell-based, human", "protocol": "Referring to FIG. 14, the wound scratching assay was performed to analysis effect of the compound II in different doses on tumor cell metastasis. In the wound scratching assay for observing cell migration, the cells MDA-MB-231 (3×10^5) were planted in a 12-well plate, and the next day the cells were washed with PBS twice. The original culture medium then was replaced by 1% FBS cell culture medium. The next day a space was scratched at the bottom of the well. The cell culture medium was removed and the cells were washed with PBS twice. 1% FBS cell culture medium and the compound II of different concentrations were added and photographs were taken after 0, 12, 24 and 36 h so as to observe migration of cells. After the reaction, the cells were fixed for 30 min using 75% ice alcohol. After the alcohol was completely volatilized, the cells were stained with Giemsa Stain. The migration number of cells was counted in three random fields (200×) under the microscope (Lin et al., 2008). […] After the breast tumor cells were treated for 0, 12, 24 and 36 h, the quantitative result of effect of the compound II on metastasis of breast tumor cells MDA-MD-231 was observed, and the data results were represented by mean±SD values, where n=3."}, "[5]": {"tested_on": "breast tumor cells MDA-MB-435", "test": "transwell invasion assay", "format": "cell-based, human", "settings": "2.5, 5 and 7.5 μM, with increasing concentration", "protocol": "as §1"}, "[6]": {"tested_on": "breast tumor cells MDA-MB-468", "test": "transwell invasion assay", "format": "cell-based, human", "settings": "0.5, 1 and 2 μM, with increasing concentration", "protocol": "as §1"}, "[7]": {"tested_on": "human normal breast cells MCF-10A stimulated by TNF-α/TGF-β", "test": "transwell invasion assay", "format": "cell-based", "settings": "2 μM with TNF-α/TGF-β 10 ng/ml simultaneously"}}, "data": [{"smiles": "COC1=C(OC)C(=O)C(C)=C(C)C1=O", "note": "[compound II]", "values": [{"measurement": "migration of breast tumor cells MDA-MB-231 (transwell)", "setting": "[1]", "result": "significantly reduced"}, {"measurement": "phosphorylation of PI3K and Akt", "setting": "[2]", "result": "probably inhibited"}, {"measurement": "protein expression of PI3K and Akt", "setting": "[2]", "result": "not affected"}, {"measurement": "IC50", "setting": "[3]", "result": 25.5, "unit": "µM"}, {"measurement": "breast tumor cells migrated", "setting": "[4]; 0.5 μM, in 12-24 h", "result": "60-70%"}, {"measurement": "migration capability of breast tumor cells", "setting": "[4]; concentration above 1 μM", "result": "significantly inhibited"}]}, {"smiles": "COC1=C(OC)C(=O)C(C)=CC1=O", "note": "[compound I]", "values": [{"measurement": "migration of breast tumor cells MDA-MB-435 (transwell)", "setting": "[5]", "result": "also significantly reduced"}, {"measurement": "migration of breast tumor cells MDA-MB-468 (transwell)", "setting": "[6]", "result": "significantly reduced"}, {"measurement": "invasion of MCF-10A", "setting": "[7]", "result": "significantly decreased"}]}]}
